Results published in US20200383961A1, “TRIPLET THERAPIES OF HDAC INHIBITORS, PD-L1 AND/OR PD-1 INHIBITORS, AND CTLA-4 INHIBITORS” (HUYA Bioscience International, LLC, priority 2019, published 2020).
Where two headings read alike, the source gives them in different places.

What was measured:
[1] = Tolerability of compounds of formula I, nivolumab and their combination (adverse events); assay type: in vivo, human; conditions: for TRAE Anemia G1-2 / TRAE Anemia G3 / TRAE Anemia G4 / TRAE Diarrhea G1-2 / TRAE Diarrhea G3 / TRAE Diarrhea G4 / TRAE Fatigue G1-2 / TRAE Fatigue G3 / TRAE Fatigue G4 / TRAE Hypophospatemia G1-2 / TRAE Hypophospatemia G3 / TRAE Hypophospatemia G4 / TRAE Lymphocyte decrease G1-2 / TRAE Lymphocyte decrease G3 / TRAE Lymphocyte decrease G4 / TRAE Neutrophil decrease G1-2 / TRAE Neutrophil decrease G3 / TRAE Neutrophil decrease G4 / TRAE Platelet decrease G1-2 / TRAE Platelet decrease G3 / TRAE Platelet decrease G4 / TRAE WBC decrease G1-2 / TRAE WBC decrease G3 / TRAE WBC decrease G4: TRAE >= 5% frequency, by association
Experimental: The tolerability of the compounds of formula I, nivolumab, and a combination of the compounds of formula I and nivolumab were tested. The Phase 2 clinical dosage of 30 mg BIW of the compounds of formula I was administered.

RR/PTCL = conditions: historical benchmark, cited from earlier work
[2] = test system: relapsed or refractory peripheral T-cell lymphoma (RR/PTCL); experiment: Phase 2 monotherapy in relapsed or refractory peripheral T-cell lymphoma; assay type: in vivo, human
Experimental: The compounds of formula I were used as a monotherapy for relapsed or refractory peripheral T-cell lymphoma (“RR/PTCL”). A dosage of 40 mg biw was approved for this study. A summary of the results is found in Table 10. […] The time after prior treatment was 96 days (vs. 222 days for romidepsin P2 trial). […] The median PFS (months) was 7.6.

[3] = test system: relapsed or refractory aggressive adult T-cell lymphoma (RR/ATL); experiment: Phase 2 monotherapy in relapsed or refractory aggressive adult T-cell lymphoma; assay type: in vivo, human; conditions: 20 evaluable, 40 mg biw monotherapy
Experimental: (§1) The compounds of formula I were used as a monotherapy for relapsed or refractory aggressive adult T-cell lymphoma (“RR/ATL”). A dosage of 40 mg biw was approved for this study. A summary of the results is found in Table 12. […] The time after prior treatment was 88 days (vs. 234 days for lenalidomide P2 trial). All patients had received mogamulizumab (“moga”) (lenalidomide ORR in moga patients was 18%).

RR/ATL [4] = experiment: Historical benchmarks for RR/ATL treatments; assay type: in vivo, human; conditions: Phase I, listed among benchmarks
Experimental: as §1

[5] = test system: tumor micro-environment (TME); conditions: cited from earlier work
RR/ATL [6] = conditions: cited from earlier work; for ORR: historical benchmark, RR/ATL
[7] = less frequent TRAEs associated with NIVO alone
[8] = 43 evaluable, 40 mg biw monotherapy
[9] = number of patients, 43 evaluable, 40 mg biw monotherapy

Molecule: NIVO: fully human monoclonal antibody directed against PD-1
- TRAE Anemia G1-2 [1]: 0 n (% of N)
- TRAE Anemia G3 [1]: 0 n (% of N)
- TRAE Anemia G4 [1]: 0 n (% of N)
- TRAE Diarrhea G1-2 [1]: 4 (6) n (% of N)
- TRAE Diarrhea G3 [1]: 1 (2) n (% of N)
- TRAE Diarrhea G4 [1]: 0 n (% of N)
- TRAE Fatigue G1-2 [1]: 0 n (% of N)
- TRAE Fatigue G3 [1]: 0 n (% of N)
- TRAE Fatigue G4 [1]: 0 n (% of N)
- TRAE Hypophospatemia G1-2 [1]: 0 n (% of N)
- TRAE Hypophospatemia G3 [1]: 0 n (% of N)
- TRAE Hypophospatemia G4 [1]: 0 n (% of N)
- TRAE Lymphocyte decrease G1-2 [1]: 0 n (% of N)
- TRAE Lymphocyte decrease G3 [1]: 0 n (% of N)
- TRAE Lymphocyte decrease G4 [1]: 0 n (% of N)
- TRAE Neutrophil decrease G1-2 [1]: 0 n (% of N)
- TRAE Neutrophil decrease G3 [1]: 0 n (% of N)
- TRAE Neutrophil decrease G4 [1]: 0 n (% of N)
- TRAE Platelet decrease G1-2 [1]: 0 n (% of N)
- TRAE Platelet decrease G3 [1]: 0 n (% of N)
- TRAE Platelet decrease G4 [1]: 0 n (% of N)
- TRAE WBC decrease G1-2 [1]: 0 n (% of N)
- TRAE WBC decrease G3 [1]: 0 n (% of N)
- TRAE WBC decrease G4 [1]: 0 n (% of N)
- TRAE TSH increase [1, 7]: 5 n
- TRAE amylase increase [1, 7]: 4 n
- TRAE lipase increase [1, 7]: 6 n
- TRAE rash [1, 7]: 10 n

Molecule: Nc1cc(F)ccc1NC(=O)c1ccc(CNC(=O)/C=C/c2cccnc2)cc1 [Epidaza]
- ORR (PMS) (RR/PTCL; value in brackets, PMS): 35%
- ORR (RR/PTCL): 28%

Molecule: O=c1[nH]cnc2c([C@@H]3N[C@H](CO)[C@@H](O)[C@H]3O)c[nH]c12 [Forodesine]
- ORR (RR/PTCL): 22%

Molecule: C#CCC(Cc1cnc2nc(N)nc(N)c2n1)c1ccc(C(=O)N[C@@H](CCC(=O)O)C(=O)O)cc1 (some centres unmarked) [Pralatrexate]
- ORR (RR/PTCL): 45%

Molecule: Nc1cc(F)ccc1NC(=O)c1ccc(CNC(=O)/C=C/c2cccnc2)cc1 [HBI-8000, N-(2-amino-4-fluorophenyl)-4-[[[(2E)-1-oxo-3-(3-pyridinyl)-2-propen-1-yl]amino]methyl]benzamide]
- TRAE Anemia G1-2 [1]: 14 (22) n (% of N)
- TRAE Anemia G3 [1]: 1 (2) n (% of N)
- TRAE Anemia G4 [1]: 0 n (% of N)
- TRAE Diarrhea G1-2 [1]: 0 n (% of N)
- TRAE Diarrhea G3 [1]: 0 n (% of N)
- TRAE Diarrhea G4 [1]: 0 n (% of N)
- TRAE Fatigue G1-2 [1]: 0 n (% of N)
- TRAE Fatigue G3 [1]: 0 n (% of N)
- TRAE Fatigue G4 [1]: 0 n (% of N)
- TRAE Hypophospatemia G1-2 [1]: 6 (10) n (% of N)
- TRAE Hypophospatemia G3 [1]: 4 (6) n (% of N)
- TRAE Hypophospatemia G4 [1]: 0 n (% of N)
- TRAE Lymphocyte decrease G1-2 [1]: 0 n (% of N)
- TRAE Lymphocyte decrease G3 [1]: 0 n (% of N)
- TRAE Lymphocyte decrease G4 [1]: 0 n (% of N)
- TRAE Neutrophil decrease G1-2 [1]: 8 (13) n (% of N)
- TRAE Neutrophil decrease G3 [1]: 5 (8) n (% of N)
- TRAE Neutrophil decrease G4 [1]: 1 (2) n (% of N)
- TRAE Platelet decrease G1-2 [1]: 23 (37) n (% of N)
- TRAE Platelet decrease G3 [1]: 3 (5) n (% of N)
- TRAE Platelet decrease G4 [1]: 0 n (% of N)
- TRAE WBC decrease G1-2 [1]: 11 (17) n (% of N)
- TRAE WBC decrease G3 [1]: 1 (2) n (% of N)
- TRAE WBC decrease G4 [1]: 0 n (% of N)
- share of TRAEs associated with the agent ([1]; among TRAEs, 63 subjects): 39%
- DCR [2, 8]: 74%
- ORR [2, 8]: 46%
- median PFS ([2]; estimated, PD date by investigator judgement, FIG. 7A): 7.6 months
- Complete Responses [2, 9]: 4
- Partial Responses [2, 9]: 16
- Stable Disease [2, 9]: 12
- DCR [3]: 60%
- ORR [3]: 40%
- Stable Disease ([3]; number of patients): 4
- Partial Responses ([3]; number of patients, all had received mogamulizumab): 8
- ORR (RR/ATL [4]): 75%
- PD-1 and PD-L1 expression ([5]; "cold" tumors): increases
- apoptosis scores and signatures ([5]; tumor cells): increasing
- conversion of M2 (suppressive) to M1 (antitumor) macrophages ([5]; tumor micro-environment): promotes
- influx of CD8+ T cells and NK cells ([5]; tumor micro-environment): increases
- number and activity of regulatory T cells (TREGs), myeloid-derived suppressor cells (MDSCs) ([5]; tumor micro-environment): reduces
- ratio of active CD8+ effector T cells to "exhausted" CD8 T cells ([5]; tumor micro-environment): increases

Molecule: Nc1cccc2c1CN(C1CCC(=O)NC1=O)C2=O (centres unmarked) [Lenalidomide]
- ORR (RR/ATL [6]): 42%
- ORR in moga patients (RR/ATL [6]; patients who had received mogamulizumab, lenalidomide P2 trial): 18%

B1: Mogamulizumab: RR/ATL treatment, historical benchmark (antibody, chains of the INN, looked up, V domains shown)
VH: EVQLVESGGDLVQPGRSLRLSCAASGFIFSNYGMSWVRQAPGKGLEWVATISSASTYSYYPDSVKGRFTISRDNAKNSLYLQMNSLRVEDTALYYCGRHSDGNFAFGYWGQGTLVTVSS
VL: DVLMTQSPLSLPVTPGEPASISCRSSRNIVHINGDTYLEWYLQKPGQSPQLLIYKVSNRFSGVPDRFSGSGSGTDFTLKISRVEAEDVGVYYCFQGSLLPWTFGQGTKVEIK
- ORR (RR/ATL [6]): 50%
